Patent US20250179073A1, “TRICYCLIC HETEROCYCLE COMPOUNDS AS IAP ANTAGONISTS” (Ascentage Pharma (Suzhou) Co., Ltd., priority 2022, published 2025)

Legend:
EVSA-T cells = experiment: Cell proliferation assay (CellTiter-Glo), EVSA-T; type: cell-based; conditions: Homo sapiens, EVSA-T, 72 h, 72 h treatment, Celltiter-Glo luminescence
Method in brief: (§1)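 MDA-MB-231 (RPMI-1640/10% FBS) and EVSA-T (MEM/10% FBS) cells, 10000 cells/well, exposed 72 h to compound at […]. Viability read by CellTiter-Glo luminescence after 15 min at room temperature. IC50 from control-normalised curve fitting.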

MDA-MB-231 cells = experiment: Cell proliferation assay (CellTiter-Glo), MDA-MB-231; type: cell-based; conditions: Homo sapiens, MDA-MB-231, 72 h, 72 h treatment, Celltiter-Glo luminescence
Method in brief: as §1

Row | Structure (SMILES) | IC50 (MDA-MB-231 cells) [µM] | IC50 (EVSA-T cells) [µM]
1 | C[C@@H]1CN(CC(=O)N2CC(C)(C)c3c2cc(Cc2ccc(F)cc2)c2nn(CCN(C)C)c(=O)n32)[C@@H](CN2CCOC[C@H]2C)CN1 [Compound 243, 2-(2-(dimethylamino)ethyl)-4-(4-fluorobenzyl)-8,8-dimethyl-6-(2-((2R,5R)-5-methyl-2-(((R)-3-methylmorpholino)methyl)piperazin-1-yl)acetyl)-2,6,7,8-tetrahydro-1H-pyrrolo[2,3-e][1,2,4]triazolo[4,3-a]pyridin-1-one] | 0.095 | 0.0145
2 | COC(=O)N1CCN(CC2CN[C@H](C)CN2CC(=O)N2CC(C)(C)c3c2cc(Cc2ccc(F)cc2)c2ncnn32)[C@H](C)C1 (stereo in doubt) [Compound 223, methyl (R)-4-(((2S,5R)-1-(2-(4-(4-fluorobenzyl)-8,8-dimethyl-7,8-dihydro-6H-pyrrolo[2,3-e][1,2,4]triazolo[1,5-a]pyridin-6-yl)-2-oxoethyl)-5-methylpiperazin-2-yl)methyl)-3-methylpiperazine-1-carboxylate] | 0.077 | 0.003
3 | C[C@@H]1CN(CC(=O)N2CC(C)(C)c3c2cc(Cc2ccc(F)cc2)c2nc(CO)cn32)[C@@H](CN2CCOC[C@H]2C)CN1 [Example 19, 1-(4-(4-fluorobenzyl)-2-(hydroxymethyl)-8,8-dimethyl-7,8-dihydro-6H-imidazo[1,2-a]pyrrolo[2,3-e]pyridin-6-yl)-2-((2R,5R)-5-methyl-2-(((R)-3-methylmorpholino)methyl)piperazin-1-yl)ethan-1-one] | 0.18 | 0.021
4 | CCNC(=O)c1nc2c(Cc3ccc(F)cc3)cc3c(n2n1)C(C)(C)CN3C(=O)CN1C[C@@H](C)NC[C@@H]1CN1CCOC[C@H]1C [Compound 259, N-ethyl-4-(4-fluorobenzyl)-8,8-dimethyl-6-(2-((2R,5R)-5-methyl-2-(((R)-3-methylmorpholino)methyl)piperazin-1-yl)acetyl)-7,8-dihydro-6H-pyrrolo[2,3-e][1,2,4]triazolo[1,5-a]pyridine-2-carboxamide] | 0.087 | 0.0158
5 | C[C@@H]1CN(CC(=O)N2CC(C)(C)c3c2cc(Cc2ccc(F)cc2)c2ncc(C#N)n32)[C@@H](CN2CCOC[C@H]2C)CN1 [Compound 111, 4-(4-fluorobenzyl)-8,8-dimethyl-6-(2-((2R,5R)-5-methyl-2-(((R)-3-methylmorpholino)methyl)piperazin-1-yl)acetyl)-7,8-dihydro-6H-imidazo[1,2-a]pyrrolo[2,3-e]pyridine-1-carbonitrile] | 0.042 | 0.002
6 | C[C@@H]1CN(CC(=O)N2CC(C)(C)c3c2cc(Cc2ccc(F)cc2N)c2ncnn32)[C@@H](CN2CCOC[C@H]2C)CN1 [Compound 129, 1-(4-(2-amino-4-fluorobenzyl)-8,8-dimethyl-7,8-dihydro-6H-pyrrolo[2,3-e][1,2,4]triazolo[1,5-a]pyridin-6-yl)-2-((2R,5R)-5-methyl-2-(((R)-3-methylmorpholino)methyl)piperazin-1-yl)ethan-1-one] | 0.046 | 0.011
7 | C[C@@H]1CN(CC(=O)N2CC(C)(C)c3c2cc(Cc2ccc(F)cc2)c2nc(CO)nn32)[C@@H](CN2CCOC[C@H]2C)CN1 [Compound 37, 1-(4-(4-fluorobenzyl)-2-(hydroxymethyl)-8,8-dimethyl-7,8-dihydro-6H-pyrrolo[2,3-e][1,2,4]triazolo[1,5-a]pyridin-6-yl)-2-((2R,5R)-5-methyl-2-(((R)-3-methylmorpholino)methyl)piperazin-1-yl)ethan-1-one] | 0.071 | 0.004
8 | C[C@@H]1CN(CC(=O)N2CC(C)(C)c3c2cc(Cc2ccc(F)cc2)c2nc(C(C)(C)O)nn32)[C@@H](CN2CCOC[C@H]2C)CN1 [Compound 137, 1-(4-(4-fluorobenzyl)-2-(2-hydroxypropan-2-yl)-8,8-dimethyl-7,8-dihydro-6H-pyrrolo[2,3-e][1,2,4]triazolo[1,5-a]pyridin-6-yl)-2-((2R,5R)-5-methyl-2-(((R)-3-methylmorpholino)methyl)piperazin-1-yl)ethan-1-one] | 0.19 | 0.012
9 | C[C@@H]1CN(CC(=O)N2CC(C)(C)c3c2cc(Cc2ccc(F)cc2)c2nncn32)[C@@H](CN2CCOC[C@H]2C)CN1 [Example 9, 1-(4-(4-fluorobenzyl)-8,8-dimethyl-7,8-dihydro-6H-pyrrolo[2,3-e][1,2,4]triazolo[4,3-a]pyridin-6-yl)-2-((2R,5R)-5-methyl-2-(((R)-3-methylmorpholino)methyl)piperazin-1-yl)ethan-1-one] | 0.53 | 0.018
10 | C[C@@H]1CN(CC(=O)N2CC(C)(C)c3c2cc(Cc2ccc(F)cc2)c2n[nH]c(=O)n32)[C@@H](CN2CCOC[C@H]2C)CN1 [Compound 152, 4-(4-fluorobenzyl)-8,8-dimethyl-6-(2-((2R,5R)-5-methyl-2-(((R)-3-methylmorpholino)methyl)piperazin-1-yl)acetyl)-2,6,7,8-tetrahydro-1H-pyrrolo[2,3-e][1,2,4]triazolo[4,3-a]pyridin-1-one] | 0.17 | 0.03
11 | C[C@@H]1CN(CC(=O)N2CC(C)(C)c3c2cc(Cc2ccc(F)cc2)c2nc(CF)nn32)[C@@H](CN2CCOC[C@H]2C)CN1 [Compound 144, 1-(4-(4-fluorobenzyl)-2-(fluoromethyl)-8,8-dimethyl-7,8-dihydro-6H-pyrrolo[2,3-e][1,2,4]triazolo[1,5-a]pyridin-6-yl)-2-((2R,5R)-5-methyl-2-(((R)-3-methylmorpholino)methyl)piperazin-1-yl)ethan-1-one] | 0.051 | 0.003
12 | C[C@@H]1CN(CC(=O)N2CC(C)(C)c3c2cc(Cc2ccc(F)cc2)c2nc(C(F)(F)F)cn32)[C@@H](CN2[C@H](C)COC[C@H]2C)CN1 [Compound 161, 2-((2R,5R)-2-(((3R,5R)-3,5-dimethylmorpholino)methyl)-5-methylpiperazin-1-yl)-1-(4-(4-fluorobenzyl)-8,8-dimethyl-2-(trifluoromethyl)-7,8-dihydro-6H-imidazo[1,2-a]pyrrolo[2,3-e]pyridin-6-yl)ethan-1-one] | 0.12 | 0.03
13 | C[C@@H]1CN(CC(=O)N2CC(C)(C)c3c2cc([C@@H](O)c2ccc(F)cc2)c2ncnn32)[C@@H](CN2CCOC[C@H]2C)CN1 [Compound 133, 1-(4-((S)-(4-fluorophenyl)(hydroxy)methyl)-8,8-dimethyl-7,8-dihydro-6H-pyrrolo[2,3-e][1,2,4]triazolo[1,5-a]pyridin-6-yl)-2-((2R,5R)-5-methyl-2-(((R)-3-methylmorpholino)methyl)piperazin-1-yl)ethan-1-one] | 0.21 | 0.056

Stronger by IC50 (MDA-MB-231 cells), values ahead:

Row | IC50 (MDA-MB-231 cells) [µM] | Structure (SMILES) | IC50 (EVSA-T cells) [µM]
14 | 0.035 | C[C@@H]1CN(CC(=O)N2CC3(CC3)c3c2cc(Cc2ccc(F)cc2)c2ncnn32)[C@@H](CN2CCOC[C@H]2C)CN1 [Compound 56, 1-(4′-(4-fluorobenzyl)spiro[cyclopropane-1,8′-pyrrolo[2,3-e][1,2,4]triazolo [1,5-a]pyridin]-6′(7′H)-yl)-2-((2R,5R)-5-methyl-2-(((R)-3-methylmorpholino)methyl)piperazin-1-yl)ethan-1-one] | 0.009
15 | 0.031 | CC(=O)N(C)c1nc2c(Cc3ccc(F)cc3)cc3c(n2n1)C(C)(C)CN3C(=O)CN1C[C@@H](C)NC[C@@H]1CN1CCOC[C@H]1C [Compound 238, N-(4-(4-fluorobenzyl)-8,8-dimethyl-6-(2-((2R,5R)-5-methy 1-2-(((R)-3-methylmorpholino)methyl)piperazin-1-yl)acetyl)-7,8-dihydro-6H-pyrrolo[2,3-e][1,2,4]triazolo[1,5-a]pyridin-2-yl)-N-methylacetamide] | 0.0013
16 | 0.029 | C[C@@H]1CN(CC(=O)N2CC(C)(C)c3c2cc(Cc2ccc(F)cc2)c2nn(C(C)(C)CO)c(=O)n32)[C@@H](CN2CCOC[C@H]2C)CN1 [Compound 260, 4-(4-fluorobenzyl)-2-(1-hydroxy-2-methylpropan-2-yl)-8,8-dimethyl-6-(2-((2R,5R)-5-methyl-2-(((R)-3-methylmorpholino)methyl)piperazin-1-yl)acetyl)-2,6,7,8-tetrahydro-1H-pyrrolo[2,3-e][1,2,4]triazolo[4,3-a]pyridin-1-one] | 0.0027
17 | 0.028 | C[C@@H]1CN(CC(=O)N2CC(C)(C)c3c2cc(Cc2ccc(F)cc2)c2nc(C4CCOC4)nn32)[C@@H](CN2CCOC[C@H]2C)CN1 (stereo partly drawn) [Compound 163, 1-(4-(4-fluorobenzyl)-8,8-dimethyl-2-(tetrahydrofuran-3-yl)-7,8-dihydro-6H-pyrrolo[2,3-e][1,2,4]triazolo[1,5-a]pyridin-6-yl)-2-((2R,5R)-5-methyl-2-(((R)-3-methylmorpholino)methyl)piperazin-1-yl)ethan-1-one] | 0.002
18 | 0.014 | C[C@@H]1CN(CC(=O)N2CC(C)(C)c3c2cc(Cc2ccc(F)cc2)c2nn(C4CCOCC4)c(=O)n32)[C@@H](CN2CCOC[C@H]2C)CN1 [Compound 190, 4-(4-fluorobenzyl)-8,8-dimethyl-6-(2-((2R,5R)-5-methyl-2-(((R)-3-methylmorpholino)methyl)piperazin-1-yl)acetyl)-2-(tetrahydro-2H-pyran-4-yl)-2,6,7,8-tetrahydro-1H-pyrrolo[2,3-e][1,2,4]triazolo[4,3-a]pyridin-1-one] | 0.003
19 | 0.012 | C[C@@H]1CN(CC(=O)N2CC(C)(C)c3c2cc(Cc2ccc(F)cc2)c2cnnn32)[C@@H](CN2CCOC[C@H]2C)CN1 [Compound 128, 1-(4-(4-fluorobenzyl)-8,8-dimethyl-7,8-dihydro-6H-pyrrolo[2,3-e][1,2,3]triazolo[1,5-a]pyridin-6-yl)-2-((2R,5R)-5-methyl-2-(((R)-3-methylmorpholino)methyl)piperazin-1-yl)ethan-1-one] | 0.002
